Assay results reported in publication PMC7698306, “Exploring the Role of a Novel Peptide from Allomyrina dichotoma Larvae in Ameliorating Lipid Metabolism in Obesity” (International Journal of Molecular Sciences, 2020).
No end group written: not given here.

Test system: HFD-fed mice
Experiment: Oral glucose tolerance test, insulin levels and insulin resistance indices in HFD-fed mice
Format: in vivo, C57BL/6 mice
Excerpt: Four-week-old male C57BL/6 mice were purchased from the Nara Bio Animal Center (NARA Biotech, Seoul, Korea) All experiments were approved by the Institutional Animal Care and Use Committee of Konkuk University (14 July 2019). All possible efforts were made to minimize the suffering and the animal count utilized in this study (KU19102). The mice were randomly divided into the following two groups after 1 week of acclimatization: n = 8 in the control group, fed a normal diet (Control, fat content of 10% kcal), and n = 30, fed a high-fat diet (HFD, fat content of 60% kcal). Mice were registered daily for food intake, and their body weights were assessed twice a week. […] HFD + EIA10, 100 mg/kg/d; and HFD + orlistat, 60 mg/kg /d for 5 weeks. As a positive control, Orlistat was used. After 12 weeks, the mice were subjected to fasting overnight and sacrificed (Figure 2A). Blood samples were harvested for further analysis. Sections of epididymal adipose and liver tissues were fixed in 10% formaldehyde for histological analyses and frozen in liquid nitrogen. An oral glucose tolerance test (OGTT) to determine the clearance of a standardized glucose load was performed after 5 weeks of oral administration. Plasma glucose was determined under postabsorptive conditions with blood collected at time ‒30 and 0 and then after oral administration of 1 g/kg of glucose at 30, 60, 90, and 120 min. Using a Blood Glucose Testing System (891 Hogye-Dong Dongan-gu, Anyang, Gyeonggi-do, Korea), blood samples were measured from the tail veins. A mouse ultrasensitive insulin ELISA package (ALPCO, Salem, NH, USA) was quantified for serum insulin. The hepatic insulin resistance index (hepatic IRI) was estimated by using the validated method of Matsuda and DeFronzo [43]. Insulin resistance was assessed using the homeostasis model assessment of insulin resistance (HOMA-IR). HOMA is a mathematically derived model of glucose–insulin feedback.

EIAQDFKTDL [EIA10] was tested, and the “insulin resistance (hepatic IRI, HOMA-IR)” value (five weeks of oral EIA10 in obese mice, Figure 3E,F) was “alleviated IR in the obese mice to some extent”, the “area under the OGTT curve (AUC)” value (oral glucose 1 g/kg after 12 h fast, vs HFD group, p < 0.05, Figure 3B) was “significantly lower” and the “insulin secretion level after oral glucose” value (oral glucose 1 g/kg, vs HFD group, p < 0.05, Figure 3C,D) was “decreased”.
